Results published in patent US10287530B2, “Surfactants based on monounsaturated fatty alcohol derivatives” (priority 2013, dated 2019).
Like-named read-outs stand apart in the source and are kept apart here.

Tests used:
[1] = Appearance and solubility of surfactants and of 1:1 molar blends with cationic surfactant; assay type: physicochemical
Protocol: (§1) The surfactant blends tested are prepared at a 1:1 molar ratio without any pH adjustment. Dilutions are made using deionized water to the desired actives level. Actives amounts are wt. % unless indicated otherwise. Appearances are reported at ambient temperature for samples prepared within the last 24 h.

[2] = Surfactant phase behavior study by cross-polarized microscopy; assay type: physicochemical; details: in deionized water, room temperature (20-22° C.); boundaries are estimates (±5%)
Protocol: Phase behavior is observed using an Olympus BH-2 cross-polarized microscope at 100-400× and room temperature (20° C. to 22° C.). The monounsaturated C11 alcohol derivatives (sulfates, ethoxylate sulfates, and alcohol ethoxylates) are compared with their saturated analogs. Samples are prepared by diluting the most concentrated product gradually with deionized water. When the surfactant concentration approaches a phase transition, the concentration is varied at 2-4% intervals to estimate the phase boundary. The actives level reported in Table 6 for each phase boundary is within ±5% of the true boundary. Samples are loaded between a microscope slide and cover glass and are allowed to equilibrate before observation. Microscopic texture is analyzed and used to determine the phase. For some samples, an AR 2000 rheometer (TA Instruments) is used to measure viscosity at 25° C. to further verify phase behavior.

[3] = Interfacial tension (IFT) against light mineral oil, synergy study with cationic surfactant; assay type: physicochemical
Protocol: as §1
Interfacial tension (IFT) of all the individual components and their blends is measured at 0.1 wt. % active against light mineral oil at ambient temperature using a Kruss DSA-20 pendent drop tensiometer. The drop is blown out at 600 μL/min., and a video is recorded for 100 s. The video frames taken during the last 15 s are analyzed and used for the IFT calculation.
For blends having an IFT less than 0.5 mN/m, the IFT is determined using a spinning drop tensiometer (University of Texas 500) at 25° C. Oil density=0.877 g/cm^3 and surfactant density=0.997 g/cm^3 are used for the IFT calculation.
The expected IFT for a blend is calculated based on ideal mixing (non-synergistic) using the active component in each blend. The equation used is given as: Expected IFT=X*IFTa+(1−X)*IFTb where X is the actives % of component A, IFTa is the IFT of component A, and IFTb is the IFT of component B. If the measured IFT for a blend is less than the expected IFT, then the blend is synergistic. If the measured IFT for a blend is higher than the expected IFT, the system is antagonistic.

[4] = tested on: zein, yellow corn (maize) protein; details: average of three runs
Protocol: The zein test is based on solubilization by surfactants of a yellow corn (maize) protein that is normally insoluble in water unless it is denatured. The test gravimetrically determines the amount of zein dissolved by a surfactant solution. The solubility of zein in surfactant solutions correlates well with skin irritation or roughness caused by the surfactant. […] A higher zein number corresponds to a greater degree of irritation.
A 1% actives solution of each test surfactant (120 mL) is prepared. The pH of each solution is adjusted to about 7.0 with dilute aq. sulfuric acid or dilute aq. sodium hydroxide. The surfactant solution is warmed to 45° C. Zein powder (1.50 g) is added to each of three jars. Surfactant (25.0 g of 1% actives solution) is added to each jar, and to one empty jar to be used as a blank. The solutions are mixed using magnetic stirring on a temperature-controlled hotplate at 45° C. for 60 min. Each mixture is then centrifuged (2500 rpm, 15 min.), and undissolved zein powder is isolated by vacuum filtration. The residue is washed with deionized water and dried (55° C., 24 h) to constant weight. The amount of undissolved zein protein is found gravimetrically, and the results from three runs are averaged to give the % of solubilized zein and zein number.

[5] = assay type: physicochemical; details: for Emulsion stability, mL separation, 1 h / Emulsion stability, mL separation, 24 h: 342 ppm water
Protocol: Surfactant candidates for water soluble herbicide applications are examined as a replacement for the anionic, nonionic, or anionic/nonionic blend portion and compared to a known industry adjuvant standard for use in paraquat, a water soluble herbicide concentrate formulation. A standard dilution test is conducted whereby the concentrates are diluted in water to determine if solubility is complete.
A known industry paraquat adjuvant (2.8 g) is added and vigorously mixed for 30 s. Deionized water (8.07 g) is added, and mixing resumes for 30 s. […] The cylinder is stoppered and inverted ten times. Solubility is recorded as complete or incomplete. Cylinders are allowed to stand and the amount (in mL) and type of separation are recorded after 30 min., 1 h, 2 h, and 24 h. Results of the solubility testing appear in Table 4 below.
An eight to ten mole alkyl phenol ethoxylate surfactant (0.7 g) is added and vigorously mixed for 30 s. Test sample (0.7 g) is added and mixing resumes for 30 s. Deionized water (4.03 g) is added, and mixing resumes for 30 s.
Test sample (0.7 g) is added and vigorously mixed for 30 s. Sodium linear alkylbenzene sulfonate (“NaLAS,” 0.7 g) is added and mixing resumes for 30 s. Deionized water (4.03 g) is added, and mixing resumes for 30 s.
Test sample (1.4 g) is added and vigorously mixed for 30 s. Deionized water (4.03 g) is added, and mixing resumes for 30 s.

In the case of “Undecylenic Alcohol, 3EO Ether Sulfate, Sodium Salt [Unsat. C11 alcohol 3EO Na sulfate]”, the Solubility [1] is reported as “good”, the “Appearance, 1.0%” value ([1]; 1:1 molar blend of the anionic with Ammonyx Cetac 30, 1.0% actives, ambient temperature) is reported as “hazy liquid” and the “Estimated Phase Region as a Function of % Actives Level: Isotropic Clear” value [2] is reported as 0-70 % actives. The “Estimated Phase Region as a Function of % Actives Level: Solid/gum/paste” value [2] was 80-100 % actives, the “Estimated Phase Region as a Function of % Actives Level: Solid/isotropic” value [2] was 70-80 % actives and the “IFT at 0.1% actives/mineral oil (blend)” value ([3]; 1:1 molar blend of the anionic with Ammonyx Cetac 30, 0.1% actives, light mineral oil) was 0.17 mN/m. The “Calculated IFT (no synergy)” value ([3]; expected IFT of the 1:1 molar blend with Ammonyx Cetac 30 by ideal mixing) was 2.73 mN/m, the “Synergy?” value ([3]; measured versus expected IFT of the 1:1 molar blend with Ammonyx Cetac 30) was “high” and the “IFT at 0.1% actives (single component)” value ([3]; single component, 0.1 wt. % active against light mineral oil, ambient temperature) was 5.10 mN/m. The “% solubilized zein” value ([4]; 1% actives solution, pH about 7.0, 45° C., 60 min) was 16.5%, the zein number ([4]; relative to 1% actives Stepanol WA-Extra PCK (SLS) control = 100, higher = more irritating) was 31.6 and the “Emulsion stability, mL separation, 1 h” value ([5]; Adjuvant (anionic/nonionic) test sample) was 0 mL. For the same substance, the “Emulsion stability, mL separation, 1 h” value ([5]; Anionic test sample) was 0 mL, the “Emulsion stability, mL separation, 24 h” value ([5]; Anionic test sample) was 0 mL and the “Emulsion stability, mL separation, 1 h” value ([5]; Nonionic test sample) was 0.2 mL. The “Emulsion stability, mL separation, 24 h” value ([5]; Nonionic test sample) was 0.5 mL and the Rating ([5]; overall, versus control) was “good”.
